# In patent US8569338B2, “Methods of using 4, 5, 6, 7-tetrahydroimidazo-[4,5-c]pyridine compounds” (Proximagen Ltd., priority 2008, dated 2013):
# pIC50: −log10 of the molar value.
# Target: purified recombinantly expressed human SSAO (Homo sapiens (Human), UniProt Q16853)
# Assay: SSAO enzyme inhibition assay (HRP-coupled Amplex Red, benzylamine substrate)
# Type: biochemical
# Settings: benzylamine 100 μM, approximately 60 minutes pre-incubation, pH 7.4, room temperature
# Method: Biological Assay of the SSAO Enzyme Inhibitors
# All assays were performed in room temperature with purified recombinantly expressed human SSAO. Enzyme was prepared essentially as described in Ohman et al. (Protein Expression and Purification 2006, 46, 321-331). The enzyme activity was measured with benzylamine as substrate and utilized the production of hydrogen peroxide for detection. In a horseradish peroxidise (HRP) coupled reaction, hydrogen peroxide oxidation of 10-acetyl-3,7-dihydroxyphenoxazine produced resorufin, which is a highly fluorescent compound (Zhout and Panchuk-Voloshina. Analytical Biochemistry 1997, 253, 169-174; Amplex® Red Hydrogen Peroxide/peroxidise Assay kit, Invitrogen A22188).
# Briefly, test compounds were dissolved in dimethyl sulfoxide (DMSO) to a concentration of 10 mM. Dose-response measurements were assayed by either creating 1:10 serial dilutions in DMSO to produce a 7 point curve or by making 1:3 serial dilutions in DMSO to produce 11 point curves. The top concentrations were adjusted depending on the potency of the compounds and subsequent dilution in reaction buffer (50 mM sodium phosphate, pH 7.4) yielded a final DMSO concentration≦2%. Enzyme and compounds were set to pre-incubate in flat-bottomed microtiter plates for approximately 60 minutes before initiating the reaction by addition of a mixture of HRP, benzylamine and Amplex reagent. Fluorescence intensity was then measured at several time points (15 minutes, 20 minutes and 30 minutes) exciting at 544 nm and reading the emission at 590 nm). Final concentrations of the reagents in the assay wells were: SSAO enzyme 2 μg/ml, benzylamine 100 μM, Amplex reagent 20 μM, HRP 0.1 U/mL and varying concentrations of test compound. The inhibition was measured as % decrease of the signal compared to a control without inhibitor (only diluted DMSO). The background signal from a sample containing no SSAO enzyme was subtracted from all data points. Data was fitted to a four parameter logistic model and IC50 values were calculated using the GraphPad Prism 4 or XLfit 4 programs.
# Chain of purified recombinantly expressed human SSAO (Q16853 29-763): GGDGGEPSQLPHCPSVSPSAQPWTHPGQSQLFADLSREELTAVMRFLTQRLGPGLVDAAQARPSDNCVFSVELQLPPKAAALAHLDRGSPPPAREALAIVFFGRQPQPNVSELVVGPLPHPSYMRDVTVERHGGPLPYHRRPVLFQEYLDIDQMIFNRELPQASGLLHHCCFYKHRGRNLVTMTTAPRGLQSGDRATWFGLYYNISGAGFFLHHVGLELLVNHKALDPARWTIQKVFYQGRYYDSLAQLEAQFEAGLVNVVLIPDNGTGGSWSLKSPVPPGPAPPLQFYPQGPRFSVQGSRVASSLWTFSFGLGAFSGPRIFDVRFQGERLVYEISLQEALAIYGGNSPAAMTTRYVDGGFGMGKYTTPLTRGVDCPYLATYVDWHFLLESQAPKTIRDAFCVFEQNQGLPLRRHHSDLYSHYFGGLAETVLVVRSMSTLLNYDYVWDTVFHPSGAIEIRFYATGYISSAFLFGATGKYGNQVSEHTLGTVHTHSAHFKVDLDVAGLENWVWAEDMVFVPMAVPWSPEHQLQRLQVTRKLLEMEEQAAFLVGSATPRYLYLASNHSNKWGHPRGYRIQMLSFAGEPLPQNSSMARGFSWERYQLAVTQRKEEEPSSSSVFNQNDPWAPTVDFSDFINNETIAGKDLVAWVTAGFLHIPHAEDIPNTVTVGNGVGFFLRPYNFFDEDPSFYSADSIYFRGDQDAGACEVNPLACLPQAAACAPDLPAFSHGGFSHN
row,pIC50,SMILES
1,7.47,"CC(C)C1c2[nH]cnc2CCN1C(=O)OCc1cccnc1 (stereo not drawn) [Example 7, Pyridin-3-ylmethyl 4-isopropyl-1,4,6,7-tetrahydro-5H-imidazo[4,5-c]pyridine-5-carboxylate]"
2,7.04,"CC(C)C1c2[nH]cnc2CCN1C(=O)OCC1CCOC1 (stereo not drawn) [Example 17, Tetrahydrofuran-3-ylmethyl 4-isopropyl-1,4,6,7-tetrahydro-5H-imidazo[4,5-c]-pyridine-5-carboxylate]"
3,7.32,"CC(C)C1c2[nH]cnc2CCN1C(=O)OCCOc1ccccc1 (stereo not drawn) [Example 14, 2-Phenoxyethyl 4-isopropyl-1,4,6,7-tetrahydro-5H-imidazo[4,5-c]pyridine-5-carboxylate]"
